Reference: patent US6737383B1, “Herbicidal oxadiazolidines” (priority 1999, dated 2004)

Tests used:
cocklebur = experiment: Test B pre/postemergence cocklebur; format: in vivo, Xanthium strumarium
Procedure, shortened: (§1)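 Response is a visual 0-to-10 score relative to untreated plants, where 0 means no effect and 10 means complete control, taken twelve to sixteen days after application. Treatments went onto soil at planting and onto foliage of 1- to 4-leaf plants, using a surfactant-containing non-phytotoxic solvent.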

velvetleaf = experiment: Test B pre/postemergence velvetleaf; format: in vivo, Abutilon theophrasti
Procedure, shortened: as §1

bamyardgrass = experiment: Test B flood test barnyardgrass; format: in vivo, Echinochloa crus-galli
Procedure, shortened: (§2)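 Flood test on plants grown to the 2-leaf stage; treated plants kept in greenhouse twelve to sixteen days, then visually rated against controls on a 0 (no effect) to 10 (complete control) scale.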

wheat = experiment: Test B pre/postemergence wheat; format: in vivo, Triticum aestivum
Procedure, shortened: as §1

duck salad = experiment: Test B flood test duck salad; format: in vivo, Heteranthera limosa
Procedure, shortened: as §2

morningglory = experiment: Test B pre/postemergence morningglory; format: in vivo, Ipomoea hederacea
Procedure, shortened: as §1

sugar beet = experiment: Test B pre/postemergence sugar beet; format: in vivo, Beta vulgaris
Procedure, shortened: as §1

wild oat = experiment: Test B pre/postemergence wild oat; format: in vivo, Avena fatua
Procedure, shortened: as §1

rice = experiment: Test B flood test rice; format: in vivo, Oryza sativa
Procedure, shortened: as §2

rape = experiment: Test B pre/postemergence rape; format: in vivo, Brassica napus
Procedure, shortened: as §1

soybean = experiment: Test B pre/postemergence soybean; format: in vivo, Glycine max
Procedure, shortened: as §1

crabgrass = experiment: Test B pre/postemergence crabgrass; format: in vivo, Digitaria sanguinalis
Procedure, shortened: as §1

pigweed = experiment: Test B pre/postemergence pigweed; format: in vivo, Amaranthus retroflexus
Procedure, shortened: as §1

giant foxtail = experiment: Test B pre/postemergence giant foxtail; format: in vivo, Setaria faberii
Procedure, shortened: as §1

purple nutsedge = experiment: Test B pre/postemergence purple nutsedge; format: in vivo, Cyperus rotundus
Procedure, shortened: as §1

corn = experiment: Test B pre/postemergence corn; format: in vivo, Zea mays
Procedure, shortened: as §1

[1] = Postemergence, Rate 62 g/ha, scale 0 to 10, 0 is no effect, 10 is complete control
[2] = Postemergence, Rate 250 g/ha, scale 0 to 10, 0 no effect, 10 complete control
[3] = Preemergence, Rate 62 g/ha, scale 0 to 10 (0 no effect, 10 complete control)
[4] = Preemergence, Rate 125 g/ha, scale 0 to 10 (0 no effect, 10 complete control)
[5] = Preemergence, Rate 250 g/ha, scale of 0 to 10 where 0 is no effect and 10 is complete control
[6] = Preemergence, Rate 500 g/ha, scale 0 (no effect) to 10 (complete control)
[7] = Rate 125 g/ha, Postemergence, scale 0 to 10, 0 no effect, 10 complete control
[8] = Rate 500 g/ha, Postemergence, scale 0 to 10, 0 no effect, 10 complete control
[9] = Rate 125 g/ha, Postemergence section (flood test species), scale 0 to 10, 0 no effect, 10 complete control
[10] = Rate 500 g/ha, listed under Postemergence (flood test species), scale 0 to 10, 0 no effect, 10 complete control
[11] = flood test, listed under Postemergence, Rate 250 g/ha, scale 0 to 10, 0 no effect, 10 complete control

Q: Which results are given for `CC(C)N(C(=O)n1oc(=O)n(Cc2cccs2)c1=O)c1ccc(F)cc1` [Compound 80]?
A: Cocklebur plant response rating (cocklebur; [1]): 0; Cocklebur plant response rating (cocklebur; [2]): 0; Cocklebur plant response rating (cocklebur; [3]): 0; Plant response rating, Cocklebur (cocklebur; [4]): 0; Plant response rating, Cocklebur (cocklebur; [5]): 0; Cocklebur plant response rating (cocklebur; [6]): 0; Cocklebur plant response rating (cocklebur; [7]): 0; Cocklebur plant response rating (cocklebur; [8]): 1; Velvetleaf plant response rating (velvetleaf; [1]): 0; Velvetleaf plant response rating (velvetleaf; [2]): 0; Velvetleaf plant response rating (velvetleaf; [3]): 0; Plant response rating, Velvetleaf (velvetleaf; [4]): 0; Plant response rating, Velvetleaf (velvetleaf; [5]): 2; Velvetleaf plant response rating (velvetleaf; [6]): 3; Velvetleaf plant response rating (velvetleaf; [7]): 0; Velvetleaf plant response rating (velvetleaf; [8]): 0; Barnyardgrass plant response rating (bamyardgrass; [1]): 0; Barnyardgrass plant response rating (bamyardgrass; [9]): 3; Barnyardgrass plant response rating (bamyardgrass; [10]): 9; Barnyardgrass plant response rating (bamyardgrass; [11]): 8; Wheat plant response rating (wheat; [1]): 0; Wheat plant response rating (wheat; [2]): 0; Wheat plant response rating (wheat; [3]): 0; Plant response rating, Wheat (wheat; [4]): 0; Plant response rating, Wheat (wheat; [5]): 0; Wheat plant response rating (wheat; [6]): 0; Wheat plant response rating (wheat; [7]): 0; Wheat plant response rating (wheat; [8]): 0; Ducksalad plant response rating (duck salad; [1]): 0; Ducksalad plant response rating (duck salad; [9]): 0; Ducksalad plant response rating (duck salad; [10]): 2; Ducksalad plant response rating (duck salad; [11]): 0; Morningglory plant response rating (morningglory; [1]): 7; Morningglory plant response rating (morningglory; [2]): 10; Morningglory plant response rating (morningglory; [3]): 0; Plant response rating, Morningglory (morningglory; [4]): 0; Plant response rating, Morningglory (morningglory; [5]): 0; Morningglory plant response rating (morningglory; [6]): 0; Morningglory plant response rating (morningglory; [7]): 8; Morningglory plant response rating (morningglory; [8]): 10; Sugarbeets plant response rating (sugar beet; [2]): 4; Sugarbeets plant response rating (sugar beet; [3]): 0; Plant response rating, Sugarbeets (sugar beet; [4]): 3; Plant response rating, Sugarbeets (sugar beet; [5]): 4; Sugarbeets plant response rating (sugar beet; [6]): 5; Sugarbeets plant response rating (sugar beet; [7]): 3; Sugarbeets plant response rating (sugar beet; [8]): 7; Wild oats plant response rating (wild oat; [1]): 0; Wild oats plant response rating (wild oat; [2]): 0; Wild oats plant response rating (wild oat; [3]): 0; Plant response rating, Wild oats (wild oat; [4]): 2; Plant response rating, Wild oats (wild oat; [5]): 3; Wild oats plant response rating (wild oat; [6]): 5; Wild oats plant response rating (wild oat; [7]): 0; Wild oats plant response rating (wild oat; [8]): 0; Rice plant response rating (rice; [1]): 0; Rice plant response rating (rice; [9]): 0; Rice plant response rating (rice; [10]): 2; Rice plant response rating (rice; [11]): 0; Rape plant response rating (rape; [1]): 2; Rape plant response rating (rape; [2]): 3; Rape plant response rating (rape; [3]): 0; Plant response rating, Rape (rape; [4]): 3; Plant response rating, Rape (rape; [5]): 4; Rape plant response rating (rape; [6]): 5; Rape plant response rating (rape; [7]): 2; Rape plant response rating (rape; [8]): 3; Soybean plant response rating (soybean; [1]): 0; Soybean plant response rating (soybean; [2]): 1; Soybean plant response rating (soybean; [3]): 0; Plant response rating, Soybean (soybean; [4]): 0; Plant response rating, Soybean (soybean; [5]): 0; Soybean plant response rating (soybean; [6]): 0; Soybean plant response rating (soybean; [7]): 1; Soybean plant response rating (soybean; [8]): 2; Crabgrass plant response rating (crabgrass; [1]): 2; Crabgrass plant response rating (crabgrass; [2]): 9; Crabgrass plant response rating (crabgrass; [3]): 3; Plant response rating, Crabgrass (crabgrass; [4]): 3; Plant response rating, Crabgrass (crabgrass; [5]): 10; Crabgrass plant response rating (crabgrass; [6]): 10; Crabgrass plant response rating (crabgrass; [7]): 9; Crabgrass plant response rating (crabgrass; [8]): 9; Redroot pigweed plant response rating (pigweed; [1]): 2; Redroot pigweed plant response rating (pigweed; [2]): 4; Plant response rating, Redroot pigweed (pigweed; [4]): 7; Plant response rating, Redroot pigweed (pigweed; [5]): 7; Redroot pigweed plant response rating (pigweed; [6]): 7; Redroot pigweed plant response rating (pigweed; [7]): 3; Redroot pigweed plant response rating (pigweed; [8]): 4; Giant foxtail plant response rating (giant foxtail; [1]): 0; Giant foxtail plant response rating (giant foxtail; [2]): 3; Giant foxtail plant response rating (giant foxtail; [3]): 6; Plant response rating, Giant foxtail (giant foxtail; [4]): 8; Plant response rating, Giant foxtail (giant foxtail; [5]): 8; Giant foxtail plant response rating (giant foxtail; [6]): 9; Giant foxtail plant response rating (giant foxtail; [7]): 2; Giant foxtail plant response rating (giant foxtail; [8]): 7; Nutsedge plant response rating (purple nutsedge; [1]): 0; Nutsedge plant response rating (purple nutsedge; [2]): 0; Nutsedge plant response rating (purple nutsedge; [3]): 0; Plant response rating, Nutsedge (purple nutsedge; [4]): 0; Plant response rating, Nutsedge (purple nutsedge; [5]): 0; Nutsedge plant response rating (purple nutsedge; [6]): 0; Nutsedge plant response rating (purple nutsedge; [7]): 0; Nutsedge plant response rating (purple nutsedge; [8]): 0; Corn plant response rating (corn; [1]): 0; Corn plant response rating (corn; [2]): 0; Corn plant response rating (corn; [3]): 0; Plant response rating, Corn (corn; [4]): 0; Plant response rating, Corn (corn; [5]): 0; Corn plant response rating (corn; [6]): 0; Corn plant response rating (corn; [7]): 0; Corn plant response rating (corn; [8]): 0
